# Assays:
# Experiment in all cases: microbe, parasite or virus in culture
# Assay type in all cases: cell-based
# [1] = tested on: SARS-CoV-2 delta (B.1.617.2); conditions: for Selectivity index: SARS-CoV-2δ, HEK293TA cells; for EC50: Severe acute respiratory syndrome coronavirus 2
# [2] = tested on: SARS-CoV-2 alpha (B.1.1.7); conditions: for Selectivity index: SARS-CoV-2α, HEK293TA cells; for EC50: Severe acute respiratory syndrome coronavirus 2
# SARS-CoV-2gamma (P.1) = conditions: for Selectivity index: SARS-CoV-2γ, HEK293TA cells; for EC50: Severe acute respiratory syndrome coronavirus 2
Compound,Selectivity index [1],EC50 [1] [nM],Selectivity index [2],EC50 [2] [nM],Selectivity index (SARS-CoV-2gamma (P.1)),EC50 (SARS-CoV-2gamma (P.1)) [nM]
"O=C(CCCCCCCCc1ccc(O)c(O)c1)c1c(O)cccc1O [Compound 1, Malabaricone C]",3.4,1900,2.6,1900,3.6,1700
CC(C)C(=O)OC[C@H]1O[C@@H](n2ccc(NO)nc2=O)[C@H](O)[C@@H]1O [Molnupiravir],13,450,14.7,400,13,520
CCC(CC)COC(=O)[C@H](C)N[P@](=O)(OC[C@H]1O[C@@](C#N)(c2ccc3c(N)ncnn23)[C@H](O)[C@@H]1O)Oc1ccccc1 [Remdesivir],,< 78,,< 78,,< 78
